Data on one molecule can be found in BindingDB's records for doi:10.1021/np9005629 (Seoul National University, 2010).

SMILES strings stand for the structures. pIC50: −log10 of the molar value. Where a name gives a salt, the structure may show the parent alone.

The target in the test is T1, Sortase family protein (Staphylococcus aureus, UniProt Q9S446).
T1 sequence (Q9S446 whole entry): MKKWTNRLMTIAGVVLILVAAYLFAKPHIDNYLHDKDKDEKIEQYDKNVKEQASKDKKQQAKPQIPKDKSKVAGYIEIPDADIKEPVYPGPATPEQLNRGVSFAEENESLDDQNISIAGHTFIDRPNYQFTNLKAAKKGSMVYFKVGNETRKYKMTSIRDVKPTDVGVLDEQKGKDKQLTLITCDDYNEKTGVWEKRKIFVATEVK
Put plainly: Inhibition of Staphylococcus aureus sortase A after 1 hr in the presence of fluorescent peptide […]-QALPETGEE-Edans by fluorimetry.

For orientation: pIC50 means the IC50 on a negative log10 scale, so that one unit is a factor of ten. Consider `O=C(O)c1cc[c]([Hg][OH])cc1` [para-(Hydroxymercury)benzoic acid sodium salt], for which the pIC50 was 3.96.
